Patent US9474780B2, “GIP and GLP-1 co-agonist compounds” (Eli Lilly and Company, priority 2015, dated 2016)
Several values for one entry are separate records, joined by “and”; a condition that tells them apart may be missing. Equal entries are not always repeated.

Columns and labels:
[1] = molecular target: T1, human GIP-R (Homo sapiens, UniProt P48546); experiment: Functional hGIP-R cAMP assay in HEK-293 clonal cells; details: HEK293, read-out: Human GIP-R Emax
T1 sequence (P48546 22-466): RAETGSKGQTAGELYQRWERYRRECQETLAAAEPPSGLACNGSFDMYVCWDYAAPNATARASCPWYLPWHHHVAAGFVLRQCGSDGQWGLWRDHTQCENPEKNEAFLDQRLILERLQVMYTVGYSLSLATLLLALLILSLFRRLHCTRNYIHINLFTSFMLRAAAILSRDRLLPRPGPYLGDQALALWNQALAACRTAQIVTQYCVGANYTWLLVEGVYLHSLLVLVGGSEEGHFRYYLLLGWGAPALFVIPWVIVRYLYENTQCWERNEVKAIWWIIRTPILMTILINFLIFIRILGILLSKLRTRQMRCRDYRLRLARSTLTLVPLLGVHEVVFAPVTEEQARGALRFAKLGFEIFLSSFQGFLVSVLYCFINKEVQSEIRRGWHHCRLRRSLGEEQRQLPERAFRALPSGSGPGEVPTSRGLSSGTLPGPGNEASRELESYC
Description: (§3) After an incubation of 60 minutes at room temperature, the resulting increase in intracellular cAMP is quantitatively determined using the CisBio cAMP Dynamic 2 HTRF Assay Kit (Bedford, Mass.). Briefly, cAMP levels within the cell are detected by adding the cAMP-d2 conjugate in cell lysis buffer (20 μl) followed by the antibody anti-cAMP-Eu^3+-Cryptate, also in cell lysis buffer (20 μl). The resulting competitive assay is incubated for at least 60 minutes at room temperature, then detected using a PerkinElmer Envision® instrument with excitation at 320 nm and emission at 665 nm and 620 nm Envision units (emission at 665 nm/620 nm*10,000) are inversely proportional to the amount of cAMP present and are converted to nM cAMP per well using a cAMP standard curve. […] A relative EC50 value and percent top (Emax) is derived by non-linear regression analysis using the percent maximal response versus the concentration of the compound of the present invention, fitted to a four-parameter logistic equation.

[2] = system: mouse islets; experiment: Mouse islet insulin secretion; assay type: cell-based; details: read-out: Mouse islet insulin secretion Mean ED50
Description: (§1) To assess action of compounds of the present invention in a system representing physiological GLP-1R and GIP-R expression levels insulin secretion, compounds are tested for effects on insulin secretion from wild-type rodent islets.
(§2) After common bile duct cannulation in male C57B1/6 mice (22-26 g) or male Sprague-Dawley rats (approx. 250 g), the pancreas is distended with Hank's buffer (3 ml for mice or 10 ml for rats, containing 2% BSA and 0.75 mg/ml Clzyme collagenase (VitaCyte). Subsequently, tissues are digested in Hank's buffer at 37° C. for 11-13 minutes (mice) or 14-16 minutes for rat pancreata. Purified islets (Histopaque-1100 gradient [Sigma-Aldrich], […] at 750× gravity) are cultured overnight in RPMI-1640 medium (Invitrogen) containing 10% FBS, 100 U/ml penicillin and 100 μg/ml streptomycin, and preconditioned by starvation in Earle's Balanced Salt Solution (EBSS) supplemented with 0.1% BSA and 2.8 mM glucose. Subsequently, islets are incubated in EBSS (Invitrogen) supplemented with 0.1% BSA, 2.8-11.2 mM glucose and increasing levels of compound (6 batches of 4 islets/condition). GLP-1(7-36)amide (30 nM) is used as a positive control. Insulin is measured over 90 minutes in supernatant using the MSD Insulin Assay (Meso Scale, Gaithersburg, Md.).

[3] = Pharmacokinetics in cynomolgus monkeys; assay type: in vivo; details: cynomolgus monkey, plasma, single SC 0.2 mg/kg, male monkeys, n = 2
Summary of the method: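 Single 0.2 mg/kg dose, intravenous or subcutaneous, in 20 mM citrate buffer pH 7.0; blood sampled from 2 to 312 hours post-dose. Plasma extracted with N-butanol, reconstituted in 30% acetonitrile/0.1% formic acid and quantified by LC/MS on a C5 column with Q-Exactive detection.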

[4] = molecular target: T2, human GLP-1R (Homo sapiens, UniProt P43220); assay type: binding
T2 construct: expressed in transfected cells; host or cells: 293HEK, Hygromycin-selected; crude plasma membranes

[5] = Weight loss, body composition and hepatic steatosis in DIO mice; assay type: in vivo, mouse; details: for Blood Glucose: Day 15
Description: The effects on weight loss, body composition and hepatic steatosis in DIO mice for compounds of the present invention are evaluated in C57/BL6 DIO mice. […] Animals are individually housed in a temperature-controlled (24° C.) facility with a 12 hour light/dark cycle (lights on 22:00), and free access to food and water. […] Daily body weight and food intake are measured throughout the study. Absolute changes in body weight are calculated by subtracting the body weight of the same animal prior to the first injection of compound. […] On Day 15, blood glucose is measured with Accu-Chek glucometer (Roche) from tail vein blood and then animals may be sacrificed and livers removed and frozen. Liver triglycerides, determined from homogenates of livers collected at sacrifice, and plasma cholesterol are measured on a Hitachi Modular P clinical analyzer. Statistical comparisons between groups are done using one-way ANOVA followed by Dunnett's multiple comparison test. The ED50 for weight loss lowering is determined in GraphPad Prism using the non-linear fit tool.

[6] = molecular target: Human GCGR (Homo sapiens, UniProt P47871); experiment: Functional hGCGR cAMP assay in HEK-293 clonal cells
[7] = molecular target: T2, human GLP-1R; experiment: Functional hGLP-1R cAMP assay in HEK-293 clonal cells; assay type: cell-based; details: HEK293; percent of maximal response of hGLP-1(7-36)NH2
Description: as §3

[8] = Rat in vivo insulin secretion following intravenous glucose (IVGTT); details: s.c. 16 hour prior to glucose
Description: Male Wistar rats (Harlan Labs, Indianapolis, Ind.) are randomized by body weight and dosed 1.5 ml/kg s.c. 16 hour prior to glucose administration and then fasted. Doses are vehicle, 0.1, 0.3, 1, 3 and 10 nmol/kg. Animals are weighed, and then anesthetized with sodium pentobarbital (Nembutal Sodium solution; Ovation Pharmaceuticals) dosed i.p. (65 mg/kg, 30 mg/ml). A time zero blood sample is collected into EDTA tubes after which glucose is administered ([…], 5 ml/kg). Blood samples are collected at 2, 4, 6, 10, 20, and 30 minutes post glucose. Plasma glucose levels are determined using a Hitachi analyzer (Roche) and plasma insulin is measured by the MSD insulin assay (Meso Scale, Gaithersburg, Md.).

[9] = system: rat islets; experiment: Rat islet insulin secretion; assay type: cell-based; details: read-out: Rat islet insulin secretion Mean ED50
Description: as §1, §2

T2 sequence (P43220 24-463): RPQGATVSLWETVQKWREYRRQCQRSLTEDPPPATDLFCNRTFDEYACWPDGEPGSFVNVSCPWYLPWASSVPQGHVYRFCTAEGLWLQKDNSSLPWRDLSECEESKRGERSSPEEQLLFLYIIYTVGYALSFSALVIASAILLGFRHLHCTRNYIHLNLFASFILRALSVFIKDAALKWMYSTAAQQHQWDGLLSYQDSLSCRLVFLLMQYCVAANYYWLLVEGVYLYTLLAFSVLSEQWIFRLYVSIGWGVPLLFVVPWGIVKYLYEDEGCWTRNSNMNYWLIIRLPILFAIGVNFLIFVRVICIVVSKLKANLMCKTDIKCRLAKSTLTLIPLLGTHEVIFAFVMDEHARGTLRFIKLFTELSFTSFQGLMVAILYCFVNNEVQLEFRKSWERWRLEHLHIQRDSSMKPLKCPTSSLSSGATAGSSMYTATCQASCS
Chain of Human GCGR (P47871 26-477): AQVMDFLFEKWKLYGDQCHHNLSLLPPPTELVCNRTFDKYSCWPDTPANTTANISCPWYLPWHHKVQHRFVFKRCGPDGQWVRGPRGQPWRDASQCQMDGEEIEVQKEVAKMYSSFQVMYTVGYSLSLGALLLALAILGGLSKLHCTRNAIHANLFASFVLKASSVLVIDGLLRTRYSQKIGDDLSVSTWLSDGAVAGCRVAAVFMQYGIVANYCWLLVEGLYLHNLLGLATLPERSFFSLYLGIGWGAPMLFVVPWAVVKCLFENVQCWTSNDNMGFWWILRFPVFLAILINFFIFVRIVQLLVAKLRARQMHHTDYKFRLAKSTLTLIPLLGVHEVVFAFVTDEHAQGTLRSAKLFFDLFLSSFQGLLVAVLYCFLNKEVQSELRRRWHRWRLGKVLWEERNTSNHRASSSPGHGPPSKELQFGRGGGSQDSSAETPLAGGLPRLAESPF

Q: For `CC[C@H](C)[C@H](NC(=O)[C@H](CC(C)C)NC(=O)[C@H](Cc1c[nH]c2ccccc12)NC(=O)[C@H](CCC(N)=O)NC(=O)[C@@H](NC(=O)[C@H](Cc1ccccc1)NC(=O)[C@H](C)NC(=O)[C@H](CCCCNC(=O)COCCOCCNC(=O)COCCOCCNC(=O)CC[C@H](NC(=O)CCCCCCCCCCCCCCCCC(=O)O)C(=O)O)NC(=O)[C@H](CCC(N)=O)NC(=O)[C@H](C)NC(=O)[C@@H](NC(=O)[C@H](CCCCN)NC(=O)[C@H](CC(=O)O)NC(=O)[C@H](CC(C)C)NC(=O)C(C)(C)NC(=O)[C@@H](NC(=O)[C@H](CO)NC(=O)[C@H](Cc1ccc(O)cc1)NC(=O)[C@H](CC(=O)O)NC(=O)[C@H](CO)NC(=O)[C@@H](NC(=O)[C@H](Cc1ccccc1)NC(=O)[C@@H](NC(=O)CNC(=O)[C@H](CCC(=O)O)NC(=O)C(C)(C)NC(=O)[C@@H](N)Cc1ccc(O)cc1)[C@@H](C)O)[C@@H](C)O)[C@@H](C)CC)[C@@H](C)CC)C(C)C)C(=O)N[C@@H](C)C(=O)NCC(=O)NCC(=O)N1CCC[C@H]1C(=O)N[C@@H](CO)C(=O)N[C@@H](CO)C(=O)NCC(=O)N[C@@H](C)C(=O)N1CCC[C@H]1C(=O)N1CCC[C@H]1C(=O)N1CCC[C@H]1C(=O)N[C@@H](CO)C(N)=O` [Example 3], which Emax [1] is on record?
A: The Emax was 106 ± 3%.

Q: And the EC50 [2]?
A: Its EC50 is 58.9 nM.

Q: And the CL/F [3]?
A: Its CL/F is 1.3 mL/h/kg.

Q: And the Cmax [3]?
A: The Cmax was 3000 ng/mL.

Q: What about the AUC(0-inf) ([3]; read-out: Mean AUC0-inf) of the same compound?
A: Its AUC(0-inf) is 153 µg·h/mL.

Q: And the half-life ([3]; read-out: Mean T1/2 (converted))?
A: The half-life was 34 h.

Q: And the Tmax ([3]; read-out: Mean Tmax)?
A: Its Tmax is 8 h.

Q: And the “Molar ratio of hGLP-1R/hGIP-R” value ([4]; normalized by factor 4.53 from native GIP and GLP-1 binding)?
A: The value was 3.53.

Q: And the “Absolute ratio of hGLP-1R/hGIP-R” value ([4]; ratio of Ki values)?
A: Its value is 16.

Q: What about the “% Change from starting body weight” value ([5]; Table 8, 10 nmol/kg) of the same compound?
A: The value was −13.38 ± 0.88 %.

Q: And the “% Change from starting fat mass” value ([5]; Table 8, 10 nmol/kg)?
A: The value was −20.76 ± 2.42 %.

Q: And the “% Change from starting body weight” value ([5]; Table 8, 30 nmol/kg)?
A: The value was −18.13 ± 1.44 %.

Q: What about the “% Change from starting fat mass” value ([5]; Table 8, 30 nmol/kg) of the same compound?
A: Its value is −30.90 ± 2.06 %.

Q: And the “% Change from starting body weight” value ([5]; Table 8, 100 nmol/kg)?
A: Its value is −25.84 ± 1.93 %.

Q: And the “% Change from starting fat mass” value ([5]; Table 8, 100 nmol/kg)?
A: The value was −45.92 ± 2.15 %.

Q: And the “Plasma Cholesterol” value ([5]; Table 11, 10 nmol/kg)?
A: The value was 213.2 ± 15.54 mg/dL.

Q: What about the “Plasma Triglycerides” value ([5]; Table 11, 10 nmol/kg) of the same compound?
A: The value was 30.38 ± 8.23 mg/dL.

Q: What about the “Blood Glucose” value ([5]; Table 11, 10 nmol/kg) of the same compound?
A: The value was 109.5 ± 2.35 mg/dL.

Q: What about the “Plasma Cholesterol” value ([5]; Table 11, 30 nmol/kg) of the same compound?
A: The value was 177.4 ± 16.58 mg/dL.

Q: And the “Plasma Triglycerides” value ([5]; Table 11, 30 nmol/kg)?
A: The value was 21.32 ± 2.48 mg/dL.

Q: What about the “Blood Glucose” value ([5]; Table 11, 30 nmol/kg) of the same compound?
A: Its value is 107.6 ± 1.32 mg/dL.

Q: What about the “Plasma Cholesterol” value ([5]; Table 11, 100 nmol/kg) of the same compound?
A: The value was 194.00 ± 14.40 mg/dL.

Q: And the “Plasma Triglycerides” value ([5]; Table 11, 100 nmol/kg)?
A: The value was 20.55 ± 4.60 mg/dL.

Q: And the “Blood Glucose” value ([5]; Table 11, 100 nmol/kg)?
A: Its value is 102.00 ± 0.50 mg/dL.

Q: And the EC50 [6]?
A: The EC50 was greater than 1000 nM.

Q: And the Emax [7]?
A: The Emax was 96.2 ± 6.2%.

Q: And the “% max increase of insulin AUC” value [8]?
A: Its value is 314 +/− 38% and 219 +/− 19%.

Q: And the “ED50 for insulin, rat IVGTT” value [8]?
A: Its value is 1.00 nmol/kg and 1.42 nmol/kg.

Q: What about the EC50 [9] of the same compound?
A: The EC50 was 34.9 nM.
